A short description of data set [1]: Intrinsic clearance in mouse liver microsomes. It counts as in vitro ADME. As to conditions: for Mouse CLi: mouse liver microsomal intrinsic clearance. Here is the method: 2.2 Intrinsic clearance: This assay was conducted as previously described in [5].
Data set [2] is described as follows: ChromLogD pH7.4 (chromatographic hydrophobicity index). It counts as physicochemical. To be noted: pH 7.4, CHIpH7.4 × 0.0857–2; for chromatographic logD: read-out: ChromlogDpH7.4.
In data set [3] the test system is intracellular T. cruzi X10/7 A1 amastigotes. The data set is described as follows: Intracellular T. cruzi assay. It counts as cell-based, Trypanosoma cruzi. To be noted: for EC50: Trypanosoma cruzi, read-out: T. cruzi (pEC50) (converted); for Activity in the intracellular T. cruzi assay (in words): purified compound. On the procedure: 1.1 Intracellular T. cruzi assay: Potency against intracellular T. cruzi X10/7 A1 amastigotes was determined as described previously with as sole modification that the compound treatment duration was increased from 72h to 96h.

The nature of data set [4]: Aqueous (kinetic) solubility by CAD. It counts as physicochemical. As to conditions: kinetic solubility measured by CAD. On the procedure: 2.1 Aqueous solubility: This assay was conducted as previously described in [4].
[5] abbreviates: potency against intracellular T. cruzi amastigotes, at least three independent replicates, standard deviations ≤0.2.

19 molecules from publication PMC11458808, “Identification and development of a series of disubstituted piperazines for the treatment of Chagas disease” (European Journal of Medicinal Chemistry, 2022) can be followed below.

Each structure is given as a SMILES string. Values after ≈ are worked out from the molar mass of the structure shown.

`COc1ccc(S(=O)(=O)Nc2ccc(Cn3cc4c(n3)CN(C(=O)c3cccc(Cl)c3)C4)cc2)cc1` [Compound 29]: the “Mouse CLi” value in data set [1] is given as 12 mL/min/g. Moreover, the “Clearance (mouse liver microsomal)” value in data set [1] (mouse, microsomes) was determined as 12 mL/min/g. Also, in data set [2], the ChromlogDpH7.4 is on record as 5.0. The “T. cruzi (pEC50)” value in data set [3] (setting [5]) is 4.9. Moreover, the solubility (as a rule, the concentration that dissolves in the medium under given conditions) in data set [4] is recorded as 19 µM (≈ 9.94 µg/mL).
With `CC#CC(=O)N1CCN(Cc2ccc(NS(=O)(=O)c3ccc(C)cc3)cc2)CC1` [Compound 26, N-(4-((4-(but-2-ynoyl)piperazin-1-yl)methyl)phenyl)-4-methylbenzenesulfonamide], in data set [1], the “Mouse CLi” value is reported as more than 50 mL/min/g. For the same molecule, the chromatographic logD in data set [2] was determined as 4.4. In addition, the EC50 in data set [3] (setting [5]) was more than 50.1 µM. Besides, the “Activity in the intracellular T. cruzi assay (in words)” value (from here on “Activity”) in data set [3] was “inactive”. Also, the solubility in data set [4] is 367 µM (≈ 151 µg/mL).
Consider `Cc1ccc(S(=O)(=O)Nc2ccc(CN3CCN(C(=O)c4cc5ccccc5[nH]4)CC3)cc2)cc1` [Compound 23, N-(4-((4-(1H-indole-2-carbonyl)piperazin-1-yl)methyl)phenyl)-4-methylbenzenesulfonamide], for which, in data set [1], the “Mouse CLi” value turned out to be 40 mL/min/g. The chromatographic logD in data set [2] is 5.6. The EC50 in data set [3] (setting [5]) is 0.2 µM. Further, the solubility in data set [4] is less than 1 µM.
With `COc1ccc(S(=O)(=O)Nc2ccc(CN3CCN(C(=O)c4cccc(F)c4)CC3)cc2)cc1` [Compound 11, N-(4-((4-(3-fluorobenzoyl)piperazin-1-yl)methyl)phenyl)-4-methoxybenzenesulfonamide], in data set [1], the “Mouse CLi” value is reported as more than 50 mL/min/g. Further, the chromatographic logD in data set [2] was found to be 4.8. For the same molecule, in data set [3] (setting [5]), the EC50 was 0.631 µM. The solubility in data set [4] was determined as 76 µM (≈ 36.8 µg/mL).
Turning to `COc1ccc(S(=O)(=O)Nc2ccc(CN3CCN(C(=O)c4cccc(Cl)c4)CC3)nc2)cc1` [Compound 44, N-(6-((4-(3-chlorobenzoyl)piperazin-1-yl)methyl)pyridin-3-yl)-4-methoxybenzenesulfonamide], the “Mouse CLi” value in data set [1] stood at 39 mL/min/g. The chromatographic logD in data set [2] was determined as 4.5. Further, in data set [3] (setting [5]), the EC50 was 7.94 µM. The solubility in data set [4] is not below 373 µM.
In the case of `COc1ccc(S(=O)(=O)Nc2ccc(CN3CCN(C(=O)Cn4cccnc4=O)CC3)cc2)cc1` [Compound 18, 4-methoxy-N-(4-((4-(2-(2-oxopyrimidin-1(2H)-yl)acetyl)piperazin-1-yl)methyl)phenyl)benzenesulfonamide], in data set [1], the “Mouse CLi” value is less than 0.5 mL/min/g. In data set [2], the chromatographic logD came out at 2.3. Moreover, the EC50 in data set [3] (setting [5]) is more than 50.1 µM. This molecule registered a solubility in data set [4] not below 336 µM.
For `COc1ccc(S(=O)(=O)Nc2ccc(CN3CCN(C(=O)c4cc(C(F)(F)F)n[nH]4)CC3)cc2)cc1` [Compound 17, 4-methoxy-N-(4-((4-(5-(trifluoromethyl)-1H-pyrazole-3-carbonyl)piperazin-1-yl)methyl)phenyl)benzenesulfonamide] the same measures were 6.4 mL/min/g, 4.9, 6.31 µM and 122 µM (≈ 63.9 µg/mL).
`COc1ccc(S(=O)(=O)Nc2ncc(CN3CCN(C(=O)c4cccc(Cl)c4)CC3)cn2)cc1` [Compound 42, N-(5-((4-(3-chlorobenzoyl)piperazin-1-yl)methyl)pyrimidin-2-yl)-4-methoxybenzenesulfonamide]: the “Mouse CLi” value in data set [1] amounted to 1.0 mL/min/g. Also, in data set [2], the chromatographic logD came out at 3.1. Also, the EC50 in data set [3] (setting [5]) is more than 50.1 µM. Moreover, the “Activity” value in data set [3] is listed as “lacked any activity”. Further, in data set [4], the solubility is not below 345 µM.
Consider `COc1ccc(S(=O)(=O)Nc2ccc(CN3CCN(C(=O)c4cc(Cl)ccc4OC)CC3)cc2)cc1` [Compound 14, N-(4-((4-(5-chloro-2-methoxybenzoyl)piperazin-1-yl)methyl)phenyl)-4-methoxybenzenesulfonamide], for which, in data set [1], the “Mouse CLi” value was more than 50 mL/min/g. The chromatographic logD in data set [2] is 5.2. The EC50 in data set [3] (setting [5]) was 2 µM. In data set [4], the solubility came out at 27 µM (≈ 14.3 µg/mL).
On to `COc1ccc(S(=O)(=O)Nc2ccc(CN3CCN(C(=O)C4CN(C(C)=O)C4)CC3)cc2)cc1` [Compound 21, N-(4-((4-(1-acetylazetidine-3-carbonyl)piperazin-1-yl)methyl)phenyl)-4-methoxybenzenesulfonamide], for which, in data set [1], the “Mouse CLi” value is on record as 1.0 mL/min/g. Besides, in data set [2], the chromatographic logD was determined as 2.6. Moreover, the EC50 in data set [3] (setting [5]) was more than 50.1 µM. The same molecule came in with a solubility in data set [4] not below 511 µM.
Turning to `COc1ccc(S(=O)(=O)Nc2cnc(CN3CCN(C(=O)c4cccc(Cl)c4)CC3)cn2)cc1` [Compound 45, N-(5-((4-(3-chlorobenzoyl)piperazin-1-yl)methyl)pyrazin-2-yl)-4-methoxybenzenesulfonamide], the “Mouse CLi” value in data set [1] was 1.3 mL/min/g. Moreover, in data set [2], the chromatographic logD came out at 2.8. Moreover, the EC50 in data set [3] (setting [5]) is more than 50.1 µM. The “Activity” value in data set [3] was “lacked any activity”. This molecule came in with a solubility in data set [4] not below 414 µM.
In the case of `COc1ccc(S(=O)(=O)Nc2cnc(CN3CCN(C(=O)c4cccc(Cl)c4)CC3)nc2)cc1` [Compound 43, N-(2-((4-(3-chlorobenzoyl)piperazin-1-yl)methyl)pyrimidin-5-yl)-4-methoxybenzenesulfonamide], the “Mouse CLi” value in data set [1] was found to be 1.5 mL/min/g. Also, in data set [2], the chromatographic logD turned out to be 2.9. For the same molecule, in data set [3] (setting [5]), the EC50 was more than 50.1 µM. For the same molecule, the “Activity” value in data set [3] is listed as “lacked any activity”. The solubility in data set [4] is not below 474 µM.
For the molecule `COc1ccc(S(=O)(=O)Nc2ccc(CN3CCN(C(=O)c4ccc(C)c(Cl)c4)CC3)cc2)cc1` [Compound 15, N-(4-((4-(3-chloro-4-methylbenzoyl)piperazin-1-yl)methyl)phenyl)-4-methoxybenzenesulfonamide], in data set [1], the “Mouse CLi” value is more than 50 mL/min/g. In addition, in data set [2], the chromatographic logD worked out at 5.8. Also, the EC50 in data set [3] (setting [5]) was 1.26 µM. The amount in solution in data set [4] (solubility) came to 13 µM (≈ 6.68 µg/mL).
In the same order, the values of `Cc1ccc(S(=O)(=O)Nc2ccc(CN(C)[C@H]3CCN(C(=O)c4cccc(Cl)c4)C3)cc2)cc1` [Compound 33, (S)-N-(4-(((1-(3-chlorobenzoyl)pyrrolidin-3-yl)(methyl)amino)methyl)phenyl)-4-methylbenzenesulfonamide] are more than 50 mL/min/g, 5.7, 6.31 µM and 27 µM (≈ 13.4 µg/mL).
Turning to `COc1ccc(S(=O)(=O)Nc2ccc(CN3CCN(C(=O)C4CCCN(C)C4)CC3)cc2)cc1` (stereo not shown) [Compound 20, 4-methoxy-N-(4-((4-(1-methylpiperidine-3-carbonyl)piperazin-1-yl)methyl)phenyl)benzenesulfonamide], the “Mouse CLi” value in data set [1] is on record as 1.5 mL/min/g. In addition, the chromatographic logD in data set [2] came to 2.3. Besides, the EC50 in data set [3] (setting [5]) was more than 50.1 µM. This molecule displayed a solubility in data set [4] not below 526 µM.
In the same order, the values of `COc1ccc(S(=O)(=O)Nc2ccc(CN3C[C@@H]4C[C@H]3CN4C(=O)c3cccc(Cl)c3)cc2)cc1` [Compound 39, N-(4-(((1S,4S)-5-(3-chlorobenzoyl)-2,5-diazabicyclo[2.2.1]heptan-2-yl)methyl)phenyl)-4-methoxybenzenesulfonamide] are more than 50 mL/min/g, 5.1, 15.8 µM and 47 µM (≈ 24.1 µg/mL).
For `Cc1ccc(S(=O)(=O)Nc2ccc(CNC3CN(C(=O)c4cccc(Cl)c4)C3)cc2)cc1` [Compound 38, N-(4-(((1-(3-chlorobenzoyl)azetidin-3-yl)amino)methyl)phenyl)-4-methylbenzenesulfonamide] the same measures were more than 50 mL/min/g, 4.8, 12.6 µM and 70 µM (≈ 32.9 µg/mL).
For `COc1ccc(S(=O)(=O)Nc2ccc(CCN3CCN(C(=O)c4cccc(Cl)c4)CC3)cc2)cc1` [Compound 40, N-(4-(2-(4-(3-chlorobenzoyl)piperazin-1-yl)ethyl)phenyl)-4-methoxybenzenesulfonamide] the same measures were more than 50 mL/min/g, 5.5, 5.01 µM and 35 µM (≈ 18 µg/mL).
For `CS(=O)(=O)Nc1ccc(CN2CCN(C(=O)c3cccc(Cl)c3)CC2)cc1` [Compound 2, N-(4-((4-(3-chlorobenzoyl)piperazin-1-yl)methyl)phenyl)methanesulfonamide], in data set [1], the “Mouse CLi” value was 2.6 mL/min/g. The chromatographic logD in data set [2] worked out at 4. The EC50 in data set [3] (setting [5]) is more than 50.1 µM. The “Activity” value in data set [3] is “complete loss of potency”. Besides, the solubility in data set [4] was not below 470 µM.
